Reference: ChEMBL document CHEMBL1201862, “PubChem BioAssay data set” (2004)
The source made the active and inactive calls.

How the values were obtained:
[1] = viability of uninfected HEp-2 cells – cell-based, HTS, cytotoxicity control for RSV inhibitor project, dose response (AID 2410); format: functional; settings: human respiratory syncytial virus
[2] = Luminescence Cell-Based Dose Retest to Confirm Inhibitors of Cancer Stem Cells. [Related pubchem assays (depositor defined):AID2717, AID2721]; format: functional; settings: Homo sapiens
Cytochrome P450 2C9 = Cytochrome P450 2C9 (Homo sapiens, UniProt P11712)
[3] = target: T1, Corticotropin-releasing factor receptor 2/Corticotropin-releasing factor-binding protein (Homo sapiens, UniProt P24387+Q13324); assay: Dose Response confirmation of uHTS hits for small molecule antagonists of the CRF-binding protein and CRF-R2 receptor complex.; format: functional; settings: read-out: IC50_Mean
T1 sequence (Q13324 whole entry): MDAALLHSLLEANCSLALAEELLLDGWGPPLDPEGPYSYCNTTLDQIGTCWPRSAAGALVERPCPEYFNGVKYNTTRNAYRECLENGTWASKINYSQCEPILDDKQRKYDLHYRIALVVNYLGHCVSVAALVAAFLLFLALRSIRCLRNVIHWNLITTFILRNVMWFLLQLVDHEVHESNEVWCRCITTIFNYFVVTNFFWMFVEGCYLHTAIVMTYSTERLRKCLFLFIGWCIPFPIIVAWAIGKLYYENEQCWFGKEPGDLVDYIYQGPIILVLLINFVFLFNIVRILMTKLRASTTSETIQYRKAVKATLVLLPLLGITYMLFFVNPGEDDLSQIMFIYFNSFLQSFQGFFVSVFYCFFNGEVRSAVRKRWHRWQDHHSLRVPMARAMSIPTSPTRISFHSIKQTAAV
T1 sequence (P24387 whole entry): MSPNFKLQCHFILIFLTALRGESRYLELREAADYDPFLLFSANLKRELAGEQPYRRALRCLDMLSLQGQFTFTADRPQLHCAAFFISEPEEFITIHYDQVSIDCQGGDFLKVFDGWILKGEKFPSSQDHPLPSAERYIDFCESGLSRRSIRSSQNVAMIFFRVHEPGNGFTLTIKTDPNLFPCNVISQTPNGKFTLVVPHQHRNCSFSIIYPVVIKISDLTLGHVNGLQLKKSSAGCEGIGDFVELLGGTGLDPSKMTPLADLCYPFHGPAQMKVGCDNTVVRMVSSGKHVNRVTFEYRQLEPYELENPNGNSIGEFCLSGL

[4] = target: T1, Corticotropin-releasing factor receptor 2/Corticotropin-releasing factor-binding protein; assay: activators of CRF receptor 2 with binding protein – uHTS hits, confirmation (AID 602473); format: functional; settings: read-out: EC50_Mean
[5] = target: T2, RNA-binding protein pos-1 (Caenorhabditis elegans, UniProt G5EF15); assay: disruptors of C. elegans POS-1 RNA interaction – biochemical, fluorescence polarization, dose response (AID 1964);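 also: purified POS-1 fused to maltose binding protein made in E. coli; potency of compounds blocking POS-1 binding to fluorescent RNA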
T2 sequence (G5EF15 whole entry): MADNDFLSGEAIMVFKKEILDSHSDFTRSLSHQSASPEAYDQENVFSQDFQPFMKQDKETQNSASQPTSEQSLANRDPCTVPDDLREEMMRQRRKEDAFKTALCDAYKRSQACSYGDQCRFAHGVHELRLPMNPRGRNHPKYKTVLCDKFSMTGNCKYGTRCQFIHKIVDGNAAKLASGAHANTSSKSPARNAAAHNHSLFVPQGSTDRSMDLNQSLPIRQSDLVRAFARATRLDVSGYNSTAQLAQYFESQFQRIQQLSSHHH

[6] = target: T3, Zinc finger protein mex-5 (Caenorhabditis elegans, UniProt Q9XUB2); assay: potency of MEX-5 RNA-binding blockers – biochemical, C. elegans, fluorescence polarization, dose response (AID 1960)
T3 sequence (Q9XUB2 whole entry): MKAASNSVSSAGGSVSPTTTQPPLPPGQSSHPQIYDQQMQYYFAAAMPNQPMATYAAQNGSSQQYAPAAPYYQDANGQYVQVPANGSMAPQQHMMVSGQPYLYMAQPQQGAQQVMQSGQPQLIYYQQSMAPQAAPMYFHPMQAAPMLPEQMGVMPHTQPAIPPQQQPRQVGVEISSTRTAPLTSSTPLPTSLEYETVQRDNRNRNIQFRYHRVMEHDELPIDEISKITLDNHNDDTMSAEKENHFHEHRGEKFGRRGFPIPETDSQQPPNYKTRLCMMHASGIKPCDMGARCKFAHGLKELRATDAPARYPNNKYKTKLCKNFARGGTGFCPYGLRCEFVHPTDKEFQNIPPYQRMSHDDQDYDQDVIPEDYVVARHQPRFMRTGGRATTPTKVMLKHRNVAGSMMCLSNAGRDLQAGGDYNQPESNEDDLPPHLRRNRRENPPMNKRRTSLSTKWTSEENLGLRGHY

cells [7] = format: functional, cell-based
INS1 = assay: INS-1E survival protection against cytokine death – cell-based, luminescence, retest, dose response (AID 449756); format: functional; settings: Rattus norvegicus, INS1;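 also: cell death triggered by IL-1 beta plus TNF-alpha plus IFN-gamma mixture; protective hits raise ATP signal compared with cytokine alone wells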
[8] = Trypanosoma cruzi growth suppression in host cells – NIH3T3 host cells, beta-gal luminescence, confirmation (AID 2044); format: functional, cell-based;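 also: intracellular parasites grown in NIH/3T3 mouse fibroblasts as host cells; luminescent beta-galactosidase reporter signal from transgenic T. cruzi replicating inside host cells; inhibitors lower the luminescence signal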
[9] = NIH3T3 cell viability loss – ATP luminescence, mouse fibroblasts, counter-screen, dose response (AID 2010); format: functional, cell-based;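 also: cells exposed to compound for about 90 hours before reading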
cells [10] = format: functional, cell-based; remark: listed apart in the source
Cytochrome P450 1A2 = target: T4, Cytochrome P450 1A2 (Homo sapiens, UniProt P05177);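 also: PubChem cytochrome P450 panel assay, CYP1A2 panel member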
T4 sequence (P05177 whole entry): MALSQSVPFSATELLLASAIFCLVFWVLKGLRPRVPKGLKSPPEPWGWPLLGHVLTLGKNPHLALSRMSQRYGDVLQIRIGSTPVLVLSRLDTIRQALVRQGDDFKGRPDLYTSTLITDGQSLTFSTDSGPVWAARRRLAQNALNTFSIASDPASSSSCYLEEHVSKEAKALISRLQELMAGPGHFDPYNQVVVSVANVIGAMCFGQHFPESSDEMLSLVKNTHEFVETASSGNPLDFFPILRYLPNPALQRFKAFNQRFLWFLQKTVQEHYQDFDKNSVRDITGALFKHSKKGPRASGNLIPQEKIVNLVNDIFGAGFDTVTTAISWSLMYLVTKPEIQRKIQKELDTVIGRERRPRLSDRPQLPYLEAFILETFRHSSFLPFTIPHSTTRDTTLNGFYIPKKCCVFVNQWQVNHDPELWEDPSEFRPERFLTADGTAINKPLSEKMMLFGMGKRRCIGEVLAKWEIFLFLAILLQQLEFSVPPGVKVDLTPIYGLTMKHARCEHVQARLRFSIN

Cytochrome P450 3A4 = Cytochrome P450 3A4 (Homo sapiens, UniProt P08684);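 also: CYP3A4 tested as one member of a cytochrome P450 panel screen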
Streptococcus = assay: GAS UMAA2166 growth inhibition – luminescence, BacTiterGlo, counter-screen for streptokinase expression inhibitor project, dose response (AID 1915); format: functional, organism-based;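 also: potency for reduction of bacterial viability or growth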
[11] = test system: Streptococcus sp. 'group A'; assay: Streptococcus pyogenes SK(-)GAS viability under kanamycin – luminescence, BacTiterGlo, confirmation, counter-screen for streptokinase expression inhibitor project, dose response (AID 1900); format: functional, organism-based
Streptokinase A = target: T5, Streptokinase A (Streptococcus pyogenes serotype M1, UniProt P10520); assay: viability-normalized secreted streptokinase activity reduction – plasminogen activation absorbance, OD405, dose response (AID 1914); format: functional, Streptococcus pyogenes M1 GAS;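 also: secreted streptokinase activity via plasminogen activation per viability signal from cell pellet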
T5 sequence (P10520 whole entry): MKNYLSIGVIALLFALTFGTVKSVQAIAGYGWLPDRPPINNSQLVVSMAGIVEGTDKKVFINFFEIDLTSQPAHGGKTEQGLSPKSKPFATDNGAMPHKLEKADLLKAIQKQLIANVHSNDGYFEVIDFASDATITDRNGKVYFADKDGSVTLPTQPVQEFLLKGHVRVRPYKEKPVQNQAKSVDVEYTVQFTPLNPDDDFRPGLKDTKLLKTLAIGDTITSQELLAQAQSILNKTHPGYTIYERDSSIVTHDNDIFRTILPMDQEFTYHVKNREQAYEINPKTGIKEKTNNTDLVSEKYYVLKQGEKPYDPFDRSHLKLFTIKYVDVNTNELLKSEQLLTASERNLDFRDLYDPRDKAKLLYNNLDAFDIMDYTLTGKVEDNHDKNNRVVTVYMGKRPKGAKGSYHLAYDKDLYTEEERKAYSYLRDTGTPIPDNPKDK

[12] = loss of viability in HepG2 cells – cell-based, CellTiter-Glo, cherry-picked, cytotoxicity control for Shn3 inhibitor project, dose response (AID 624134); format: functional
[13] = reduction of Shn3 3'UTR-driven luciferase in osteoblasts – cell-based, Clone20 osteoblasts, firefly luciferase, cherry-picked, dose response (AID 624132); format: functional;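 also: firefly luciferase luminescence from reporter carrying the Shn3 3'UTR in osteoblasts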
Cytochrome P450 2C19 = Cytochrome P450 2C19 (Homo sapiens, UniProt P33261); assay: Cytochrome panel assay with activity outcomes. Panel member name: p450-cyp2c19 Compounds with AC50 equal or less than 10 uM are considered active; format: functional
Sequence of Cytochrome P450 2C19 (P33261 whole entry): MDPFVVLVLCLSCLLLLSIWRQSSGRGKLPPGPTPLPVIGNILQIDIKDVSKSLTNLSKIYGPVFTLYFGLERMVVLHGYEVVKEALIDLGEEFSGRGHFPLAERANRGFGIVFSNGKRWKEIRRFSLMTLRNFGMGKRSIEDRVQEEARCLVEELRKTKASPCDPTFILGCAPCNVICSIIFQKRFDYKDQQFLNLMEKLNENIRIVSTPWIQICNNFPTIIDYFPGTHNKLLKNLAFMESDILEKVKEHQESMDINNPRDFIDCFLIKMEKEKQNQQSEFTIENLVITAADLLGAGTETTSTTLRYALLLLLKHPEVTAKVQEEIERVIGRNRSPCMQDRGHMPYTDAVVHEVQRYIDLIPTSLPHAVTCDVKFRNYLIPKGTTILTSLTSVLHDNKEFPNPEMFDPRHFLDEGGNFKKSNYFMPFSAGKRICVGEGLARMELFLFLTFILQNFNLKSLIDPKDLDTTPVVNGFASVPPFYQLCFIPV

Sequence of Cytochrome P450 2C9 (P11712 whole entry): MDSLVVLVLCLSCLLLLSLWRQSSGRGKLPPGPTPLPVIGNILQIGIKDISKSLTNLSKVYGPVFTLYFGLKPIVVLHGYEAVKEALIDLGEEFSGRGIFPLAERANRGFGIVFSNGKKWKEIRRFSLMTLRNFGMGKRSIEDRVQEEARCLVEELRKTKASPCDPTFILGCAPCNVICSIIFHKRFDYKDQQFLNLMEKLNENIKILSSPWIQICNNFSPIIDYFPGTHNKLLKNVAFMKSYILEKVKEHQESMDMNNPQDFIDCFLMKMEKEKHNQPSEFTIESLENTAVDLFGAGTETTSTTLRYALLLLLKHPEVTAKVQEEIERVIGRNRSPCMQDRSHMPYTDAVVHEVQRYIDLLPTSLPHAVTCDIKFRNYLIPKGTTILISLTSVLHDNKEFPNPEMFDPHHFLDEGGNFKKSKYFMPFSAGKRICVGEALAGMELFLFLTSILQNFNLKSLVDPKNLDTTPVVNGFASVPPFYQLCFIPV
Sequence of Cytochrome P450 3A4 (P08684 whole entry): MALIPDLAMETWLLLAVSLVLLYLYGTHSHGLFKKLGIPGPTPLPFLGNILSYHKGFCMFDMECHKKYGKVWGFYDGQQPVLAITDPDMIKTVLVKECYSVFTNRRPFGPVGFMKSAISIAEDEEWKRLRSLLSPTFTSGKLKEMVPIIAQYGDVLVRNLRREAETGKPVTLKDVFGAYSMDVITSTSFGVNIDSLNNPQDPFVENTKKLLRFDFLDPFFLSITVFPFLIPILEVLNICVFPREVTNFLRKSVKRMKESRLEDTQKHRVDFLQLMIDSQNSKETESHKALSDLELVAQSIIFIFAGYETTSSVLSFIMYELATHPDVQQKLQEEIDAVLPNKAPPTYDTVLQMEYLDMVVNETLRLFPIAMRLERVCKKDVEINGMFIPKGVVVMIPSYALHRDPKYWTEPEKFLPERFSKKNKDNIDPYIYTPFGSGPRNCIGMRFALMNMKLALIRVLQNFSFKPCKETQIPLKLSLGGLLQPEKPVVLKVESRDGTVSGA

COc1ccc(C(=O)Nc2ccc(Nc3ccccc3)cc2)cc1[N+](=O)[O-]
CC50 [1]: 12.2 µM (active) | AC50 [2]: 2.69 µM (active)

Cc1ccccc1C(=O)NNC(=O)c1ccc(F)cc1
AC50 (Cytochrome P450 2C9): inconclusive

O=C(Nc1ccc(N2CCN(c3ccccc3)CC2)c(F)c1)C1CC1
IC50 [3]: > 47.1 µM (inactive) | EC50 [4]: > 53 µM (inactive)

CN(C)c1cc(-c2ccc([N+](=O)[O-])cc2)oc(=O)c1Cl
EC50 [5]: 49.5 µM (active) | EC50 [6]: 165 µM (inconclusive)

CN1C(=O)C(=CNc2ccc(N3CCOCC3)cc2)C(=O)N(C)C1=S
EC50 [5]: > 300 µM (not active) | EC50 [6]: > 300 µM (inconclusive)

Cc1ccc(C)n1CCN1CCN(CC(=O)Nc2cc(C(F)(F)F)ccc2Cl)CC1
AC50 (Cytochrome P450 2C9): inconclusive

COc1ccc(C)cc1NC(=O)N1CCCc2ccccc21
IC50 [3]: > 47.1 µM (inactive) | EC50 [4]: > 53 µM (inactive)

Cc1ccc2nc(-c3ccccn3)c(Nc3ccccc3C)n2c1
EC50 (cells [7]): > 350 µM (not active) | AC50 (INS1): 6.06 µM (active) | EC50 [8]: 1.74 µM (active) | AC50 [2]: 5.42 µM (active) | EC50 [9]: 5.84 µM (active) | EC50 (cells [10]): 18.6 µM (active)

CCCn1nc(C(=O)Nc2ccc(S(=O)(=O)Nc3nccs3)cc2)c2ccccc2c1=O
EC50 [5]: > 150 µM (not active) | EC50 [6]: 27.8 µM (active)

CC(C)(C)c1ccc(Oc2ccc(N)cc2)cc1
AC50 [2]: 1.85 µM (active)

CCOc1ccc(Cc2nc(C)c(CC(=O)N3CCOCC3)c(O)n2)cc1
AC50 (Cytochrome P450 2C9): inconclusive

Cc1cc(C)cc(C(=O)Nc2cccnc2Cl)c1
IC50 [3]: > 47.1 µM (inactive) | EC50 [4]: > 53 µM (inactive)

CC(=O)NCCNc1ncncc1-c1ccccc1C
AC50 (Cytochrome P450 1A2): 25.1 µM (inconclusive) | AC50 (Cytochrome P450 2C9): inconclusive

COC(=O)C1=COC(C)C2CN3CCc4c([nH]c5cc(OC)c(OC)cc45)C3CC12 (stereo unspecified)
EC50 [5]: 15.5 µM (active) | EC50 [6]: 14.4 µM (active)

Cc1cccc(N=C(S)NCC(C)CSc2ccc(Cl)cc2)c1 (stereo unspecified)
AC50 [2]: 5.75 µM (active)

COc1ccc(CCN2C(=O)NC(=O)/C(=C\NNC(=O)c3ccncc3)C2=O)cc1OC
EC50 [6]: 43.7 µM (active)

O=S(=O)(NCc1cc(-c2ccccc2Cl)no1)c1ccc(Cl)cc1
AC50 (Cytochrome P450 3A4): 20 µM (inconclusive) | AC50 (Cytochrome P450 2C9): inconclusive

O=S(=O)(Nc1ccc(-n2cccc2)cc1)c1ccc(Cl)c(Cl)c1
AC50 [2]: 4.84 µM (active) | EC50 (Streptococcus): 7.58 µM (active) | EC50 [11]: 7.42 µM (active) | EC50 (Streptokinase A): 11.3 µM (inconclusive)

CCC(C)[C@H](NC(=O)N1CCn2c1nc1ccccc12)C(=O)NCc1ccc(OC)cc1 (stereo partly specified)
IC50 [3]: > 47.1 µM (inactive) | EC50 [4]: > 53 µM (inactive)

CCCCNC(=S)NNC(=O)c1cc(C)on1
EC50 [5]: > 300 µM (not active) | EC50 [6]: > 300 µM (not active)

COc1cc(Nc2nc(-c3ccccc3)c3cc(C)ccc3n2)cc(OC)c1OC
AC50 [12]: 60.2 µM (active) | AC50 [2]: 5.05 µM (active) | AC50 [13]: 6.55 µM (active)

COCc1ccc(CN2CCC(C(=O)Nc3cccc(-c4cscn4)c3)CC2)o1
IC50 [3]: > 47.1 µM (inactive) | EC50 [4]: > 53 µM (inactive)

O=C(NCC1COc2ccccc2O1)C1CCN(S(=O)(=O)c2cccc3nsnc23)CC1 (stereo unspecified)
AC50 (Cytochrome P450 2C9): inconclusive

N#Cc1cc(N)ccc1Sc1ccc(Cl)cc1
AC50 (Cytochrome P450 2C9): inconclusive

CC(C)(c1ccccc1)c1ccc(OCCN2CCCC2)cc1
AC50 [2]: 0.824 µM (active)

Cc1cc(C)c(NC(=O)c2ccc(CNS(=O)(=O)c3cc(C(F)(F)F)ccc3Cl)cc2)c(C)c1
IC50 [3]: > 47.1 µM (inactive) | EC50 [4]: > 53 µM (inactive)

Cc1cc(NC(=O)c2ccc(S(=O)(=O)N(C)C)cc2)n(-c2ccccn2)n1
AC50 (Cytochrome P450 2C9): inconclusive

O=[N+]([O-])c1cc(/C=N\O)ccc1Oc1ccc(F)cc1
IC50 [3]: 24.9 µM (active) | EC50 [4]: > 53 µM (inactive)

COC(=O)N/N=C(\C)c1cccs1
IC50 [3]: > 47.1 µM (inactive) | EC50 [4]: > 53 µM (inactive)

O=P(/C(=N/O)N1CCOCC1)(N1CCOCC1)N1CCOCC1
IC50 [3]: > 47.1 µM (inactive) | EC50 [4]: > 53 µM (inactive)

N#Cc1c(-c2ccccc2Cl)c2c([nH]c1=O)-c1ccccc1OC2
EC50 [5]: > 300 µM (inconclusive) | EC50 [6]: 38.8 µM (active)

Cn1cc(C(=O)C(=O)N[C@H]2CN3CCC2CC3)c2ccccc21
AC50 (Cytochrome P450 2C9): inconclusive

Cc1nn(-c2ccccc2)c(C)c1/C=N/NC(=O)c1cc(-c2ccc(Br)s2)[nH]n1
AC50 [2]: 0.434 µM (active) | EC50 (Streptococcus): 11.8 µM (active) | EC50 [11]: 7.15 µM (active) | EC50 (Streptokinase A): > 150 µM (not active)

Cc1c(C)c2c(c(C)c1O)CC[C@@](C)(CCC[C@@H](C)CCC[C@@H](C)CCCC(C)C)O2
AC50 (Cytochrome P450 2C19): inconclusive | AC50 (Cytochrome P450 2C9): inconclusive
